Test results taken from the NIST ThermoML archive (doi:10.1016/j.jct.2013.07.026).
Several values for one entry are separate records, joined by “and”; a condition that tells them apart may be missing. Equal entries are not always repeated. Numbers after ± are expanded uncertainties.

Key:
[1] = Crystal, Calculated from knudsen effusion weight loss
[2] = molar enthalpy of vaporization or sublimation; conditions: 298.15 K; Crystal; Static calorimetry

Structure (SMILES) | vapor or sublimation pressure ([1]; 301.2 K) | vapor or sublimation pressure ([1]; 303.19 K) | vapor or sublimation pressure ([1]; 305.1 K) | vapor or sublimation pressure ([1]; 307.19 K) | vapor or sublimation pressure ([1]; 309.18 K) | vapor or sublimation pressure ([1]; 311.1 K) | vapor or sublimation pressure ([1]; 313.19 K) | vapor or sublimation pressure ([1]; 315.19 K) | vapor or sublimation pressure ([1]; 317.1 K) | vapor or sublimation pressure ([1]; 319.18 K) | vapor or sublimation pressure ([1]; 321.15 K) | vapor or sublimation pressure ([1]; 323.09 K) | molar enthalpy [2] [kcal/mol]
O=C(CCl)c1ccc(Cl)cc1 [2,4'-dichloroacetophenone] | 8.5e-05 ± 4e-06 kPa and 7.6e-05 ± 4e-06 kPa and 7.9e-05 ± 4e-06 kPa | 9.9e-05 ± 5e-06 kPa and 0.000105 ± 5e-06 kPa and 0.000103 ± 5e-06 kPa | 0.000133 ± 7e-06 kPa and 0.000131 ± 7e-06 kPa and 0.000134 ± 7e-06 kPa | 0.000165 ± 8e-06 kPa and 0.000178 ± 9e-06 kPa | 0.000218 ± 1.1e-05 kPa and 0.000214 ± 1.1e-05 kPa and 0.000221 ± 1.1e-05 kPa | 0.00027 ± 1.4e-05 kPa and 0.000271 ± 1.4e-05 kPa and 0.000278 ± 1.4e-05 kPa | 0.000344 ± 1.7e-05 kPa and 0.000341 ± 1.7e-05 kPa and 0.000359 ± 1.8e-05 kPa | 0.000447 ± 2.2e-05 kPa and 0.000437 ± 2.2e-05 kPa and 0.000448 ± 2.2e-05 kPa | 0.000561 ± 2.8e-05 kPa and 0.000553 ± 2.8e-05 kPa and 0.000562 ± 2.8e-05 kPa | 0.000699 ± 3.5e-05 kPa and 0.000686 ± 3.4e-05 kPa and 0.000757 ± 3.8e-05 kPa | 0.000903 ± 4.5e-05 kPa and 0.000911 ± 4.6e-05 kPa and 0.000875 ± 4.4e-05 kPa | 0.001131 ± 0.00012 kPa and 0.001115 ± 0.00011 kPa and 0.001107 ± 0.00011 kPa | –
O=C(CCl)c1ccccc1 [2-chloroacetophenone] | – | – | – | – | – | – | – | – | – | – | – | – | 21 ± 0.406
